According to patent publication US12054457B2, “Polymorphs of (2S,5R)-5-(2-chlorophenyl)-1-(2′-methoxy-[1,1′-biphenyl]-4-carbonyl)pyrrolidine-2-carboxylic acid and preparation processes thereof” (EPICS THERAPEUTICS, priority 2022, dated 2024):
Where a name gives a salt, the structure may show the parent alone.

Columns and labels:
Assay type in all cases: physicochemical
[1] = Hygroscopicity: weight gain on storage at fixed relative humidity
Source text: The previously described solid forms of (2S,5R)-5-(2-chlorophenyl)-1-(2′-methoxy-[1,1′-biphenyl]-4-carbonyl)pyrrolidine-2-carboxylic acid, i.e. the amorphous free acid and the corresponding Na salt, both disclosed in WO2021/250174, are hygroscopic.

[2] = Thermodynamic stability over time
[3] = Thermal gravimetric analysis (TGA); details: temperature range 10° C.-200° C., 10° C./min, nitrogen purge
Description: The thermal gravimetric analysis (TGA) experiments were performed on a Mettler Toledo TGA/DSC3+ apparatus. The samples (about 10-30 mg) were placed in a 100 μL aluminum sample pan and crimped with a punctured cover. […]

[4] = Cross-seeding tests in water and n-heptane; details: 25° C., form II suspension seeded with form I
Description: Cross-seeding tests were carried out in water and n-heptane.
Method. Saturated solutions of form II were prepared at 25° C. in water and in n-heptane. The suspensions were then seeded with form I after 45 minutes, and kept under stirring at 25° C. The solid phases in suspensions were then periodically controlled by XRPD.

[5] = Hygroscopicity by dynamic vapor sorption (DVS)
Description: The determination of the hygroscopicity of crystalline forms I and II was also evaluated by dynamic vapor sorption (DVS).
The analyses were performed on a Surface Measurements System DVS Intrinsic. The samples were placed in an open aluminum pan. The analyses were performed at 25° C. Relative humidity (RH) was scanned between 0% RH and 95% RH, with 10% RH steps (40-0-95-0-95). The stability criterion was a variation in mass lower than 0.002% on a 5 min. window, with a minimum step time of 10 min and a maximum of 100 min.

[6] = Competitive slurry test between form I and form II in isopropyl alcohol
Description: A competitive slurry test between form I and form II of compound (1) was carried out at 10° C., 20° C., 25° C., 30° C. and 40° C. in isopropyl alcohol.
Method. Suspensions of compound (1) under form II, in isopropyl alcohol, were first prepared and equilibrated for 30 min at each of the temperatures to be studied. About 800 μL of the saturated solutions were then sampled, filtered through a 0.2 μm HPTFE filter, and added into a vial containing 50 mg of form I and 50 mg of form II, equipped with a magnetic rod. After 10 seconds, a first sample of the solid phase is taken and analyzed by XRPD to identify the solid phase(s) present. Additional sampling are also performed until only 1 solid phase remains.

[7] = Competitive slurry test between form I and form II in n-heptane; details: 10° C., 20° C., 25° C., 30° C. and 40° C.
Description: A competitive slurry test between form I and form II of compound (1) was carried out at 10° C., 20° C., 25° C., 30° C. and 40° C. in n-heptane.
Method. About 1 mL of n-heptane was added into vials containing 40 mg of form I and 40 mg of form II, equipped with a magnetic rod. After 10 seconds, a first sample of the solid phase is taken and analyzed by XRPD to identify the solid phase(s) present. Additional sampling are also performed until only 1 solid phase remains.

COc1ccccc1-c1ccc(C(=O)N2[C@@H](c3ccccc3Cl)CC[C@H]2C(=O)O)cc1 [amorphous free acid, (2S,5R)-5-(2-chlorophenyl)-1-(2′-methoxy-[1,1′-biphenyl]-4-carbonyl)pyrrolidine-2-carboxylic acid]
weight gain ([1]; 40% relative humidity, after 2 days): 3 wt % | weight gain ([1]; 70-75% relative humidity, room temperature, after 14 h): 8 wt % | hygroscopicity (in words) ([1]; previously described solid forms): hygroscopic

COc1ccccc1-c1ccc(C(=O)N2[C@@H](c3ccccc3Cl)CC[C@H]2C(=O)O)cc1 [form I, (2S,5R)-5-(2-chlorophenyl)-1-(2′-methoxy-[1,1′-biphenyl]-4-carbonyl)pyrrolidine-2-carboxylic acid]
weight gain ([1]; 80% relative humidity, 25° C., after 10 days): 0.09 wt % | time for which the form is thermodynamically stable [2]: at least 6 months | weight loss (TGA) ([3]; listed as crystalline form I): −0.14% | relative stability of the forms [4]: greater stability of form I vs. form II | hygroscopicity (conclusion in words) ([5]; DVS and humidity exposure): non-hygroscopic | weight loss on first desorption stage ([5]; DVS, 25° C., 40% RH to 0% RH): −0.1% | weight gain at the end of the step at 70% RH ([5]; DVS, 25° C., first sorption stage (0% RH to 95% RH)): +0.1% | maximum weight gain at 95% RH ([5]; DVS, 25° C., first sorption stage (0% RH to 95% RH), listed as crystalline form I): +0.7% | relative stability of the forms ([6]; 10° C., 20° C., 25° C., 30° C. and 40° C.): more stable than form II

COc1ccccc1-c1ccc(C(=O)N2[C@@H](c3ccccc3Cl)CC[C@H]2C(=O)O)cc1 [form II, (2S,5R)-5-(2-chlorophenyl)-1-(2′-methoxy-[1,1′-biphenyl]-4-carbonyl)pyrrolidine-2-carboxylic acid]
solid phase conversion (XRPD) [7]: conversion of form II into form I | weight loss (TGA) ([3]; listed as crystalline form II): −0.2% | maximum weight gain at 95% RH ([5]; DVS, 25° C., first sorption stage (0% RH to 95% RH), listed as crystalline form II): +0.4% | solid phase present in suspension (XRPD) ([6]; 10-40° C., first sampling after 10 seconds): not visible anymore in the suspensions since the first sampling

COc1ccccc1-c1ccc(C(=O)N2[C@@H](c3ccccc3Cl)CC[C@H]2C(=O)O)cc1 [Na salt, (2S,5R)-5-(2-chlorophenyl)-1-(2′-methoxy-[1,1′-biphenyl]-4-carbonyl)pyrrolidine-2-carboxylic acid]
weight gain ([1]; 40% relative humidity, after 14 h): 7 wt % | weight gain ([1]; 70% relative humidity, 22° C., after 14 h): 20 wt %
